# Data from article PMC6522510 (Nature Communications, 2019).
# Tests used:
# Parameters in all cases: species or system AML cell lines (8); Primary HTS, single concentration about 10 uM, Cell Titer Glo viability; log10 luminescence, per cent inhibition relative to cycloheximide control
# Details in all cases: 72 h, relative to cycloheximide control, log10 luminescence; inhibitor
# [1] = test system: MV4-11
# [2] = test system: M07e
# [3] = test system: MOLM-13
# [4] = test system: ML-2
# [5] = test system: CHRF288-11
# [6] = test system: CMK
# [7] = test system: CMS
# [8] = test system: U937
SMILES,MV4-11 %inh [1] [%],M07e %inh [2] [%],MOLM-13 %inh [3] [%],ML-2 %inh [4] [%],CHRF288-11 %inh [5] [%],CMK %inh [6] [%],CMS %inh [7] [%],U937 %inh [8] [%]
"Cc1cc(-c2ccccn2)cc(C)c1/C=C/c1cncc(-c2nn[nH]n2)c1 [SJ000573354-1, U12068/128/1]",-0.7703,-1.071,1.519,-0.7476,-4.309,0.3268,-3.491,1.124
"Nc1nonc1-c1nc2cnccc2n1C1CCCCC1 [SJ000573355-1, SD100950-004A1]",40.98,-4.008,7.234,31.12,15.53,8.293,13.87,17.92
"O=C1Nc2ccccc2/C1=C/Nc1ccc2[nH]c(=O)[nH]c2c1 [SJ000573356-1, U7003/61/1]",43.08,4.187,61.37,0.9059,4.722,1.313,0.8831,2.265
"Nc1nc(-c2ccc(F)cc2)c(-c2ccc3ncccc3n2)s1 [SJ000573357-1, R5931/120/1]",-0.2605,0.3459,3.49,-0.2788,7.658,-0.6603,0.9588,3.577
"CCS(=O)(=O)c1ccc(OC)c(Nc2ncc(-c3cccc(OC)c3)o2)c1 [SJ000573358-1, U15747/93/1]",70.44,-2.224,73.64,1.703,1.123,8.053,-1.141,5.914
"CCCCOCCOc1nc(-c2ccc(C(=O)O)c(F)c2)sc1C [SJ000573474-2, AC 261066]",12.22,1.286,4.751,0.9412,2.475e-05,1.422,12.33,6.265
"CC1(C)CCC(C)(C)c2cc(C3(c4ccc5cc(C(=O)O)ccc5c4)SCCS3)ccc21 [SJ000573478-2, MM 11253]",1.741,1.802,2.534,0.2271,-4.46,-3.669,0.01284,1.985
"CCOC(=O)C1=C(N)Oc2ccc(Br)cc2[C@H]1[C@H](C#N)C(=O)OCC [SJ000574273-1, HA14-1]",14.02,0.5476,2.194,-0.1514,-0.6917,4.094,0.956,6.381
"CCCS(=O)(=O)Nc1ccc(F)c(C(=O)c2c[nH]c3ncc(-c4ccc(Cl)cc4)cc23)c1F [SJ000574274-1, VEMURAFENIB | PLX-4032 | R-7204 | RG-7204 | RO-5185426 | PLX4032 | RG7204 | VEMURAFENIB (PLX4032, RG7204)]",-4.805,-0.8043,-2.361,-0.6517,-2.721,1.427,1.477,-0.9604
"NC(=O)c1ccc(-c2nc(-c3ccc4c(c3)OCO4)c(-c3ccccn3)[nH]2)cc1 [SJ000574283-1, SB-431542 | SB431542]",0.325,-4.824,3.22,0.07602,-7.63,-2.116,0.4519,-2.319
"CC(C)(C)c1cnc(CSc2cnc(NC(=O)C3CCNCC3)s2)o1 [SJ000574284-1, BMS-387032 | SNS-032]",73.5,111.6,98.7,59.52,54.06,91.14,97.36,69.97
"Cc1cc(Nc2cc(N3CCN(C)CC3)nc(Sc3ccc(NC(=O)C4CC4)cc3)n2)n[nH]1 [SJ000574290-1, TOZASERTIB | VX-680 | MK-0457 | VX6 | VX-680 | TOZASERTIB | MK-0457 | | VX-680 (TOZASERTIB, MK-0457)]",64.96,61.91,88.48,25.05,110.2,63.64,15.77,19.84
"CC(=O)Nc1cccc(-n2c(=O)n(C3CC3)c(=O)c3c(Nc4ccc(I)cc4F)n(C)c(=O)c(C)c32)c1 [SJ000574293-1, TRAMETINIB | GSK-1120212B | JTP-74057 | 1120212 | GSK-1120212 | GSK1120212 | TRAMETINIB (GSK1120212)]",40.11,16.11,39.84,27.14,30.11,4.055,21.59,11.49
"N#CC[C@H](C1CCCC1)n1cc(-c2ncnc3[nH]ccc23)cn1 [SJ000574296-1, RUXOLITINIB | INCB-18424 | INCB-018424 | NCB018424 | INC-424 | INCB-424 | RUXOLITINIB | INCB-18424 | INCB-018424 | NCB018424 | INC-424 | INCB-424 | | RUXOLITINIB (INCB018424) | S-RUXOLITINIB (INCB018424)]",11.92,44.64,27.41,4.441,79.68,85.02,86.42,33.85
"CCC(=O)O[C@]1(C(=O)CCl)[C@@H](C)C[C@H]2[C@@H]3C[C@H](F)C4=CC(=O)C=C[C@]4(C)[C@@]3(F)[C@@H](O)C[C@@]21C [SJ000574311-1, HALOBETASOL PROPIONATE]",1.288,1.449,-1.713,0.4055,2.781,-5.875,-1.131,2.458
COC(=O)C1=C(C)N(CCc2cc(OC)c(OC)c(OC)c2)C(=O)N[C@H]1c1ccccc1 [SJ000579768-1],3.524,-5.412,-2.193,-0.773,-6.017,-0.2715,-1.498,-0.6782
CC1(OC(=O)C2CCCC2)C(=O)C=C2C=C(c3ccsc3)N(CCCCO)C=C2C1=O (stereo not drawn) [SJ000579780-1],-0.2702,-0.9393,6.828,-1.026,-0.7955,-4.183,0.1638,-0.2771
CC(=O)[C@@H]1[C@@H](C)N(Cc2ccccc2)C(=O)N[C@H]1c1cccc(C(F)(F)F)c1 [SJ000579797-1],0.5112,-1.436,-2.815,0.485,8.301,-5.628,1.099,0.542
COC(=O)CCC(=O)OC1(C)C(=O)C=C2C=C(C3CC3)N(Cc3ccc(OC)cc3)C=C2C1=O (stereo not drawn) [SJ000579817-1],0.1893,4.577,6.903,0.04263,-0.5157,0.09613,1.001,-0.6979
COC(=O)CCCC1=CC2=CC(=O)C(C)(OC(=O)c3cccs3)C(=O)C2=CN1C1CCCCC1 (stereo not drawn) [SJ000579837-1],0.3457,-0.3619,2.949,1.343,2.103,6.006,-0.4009,1.516
COc1ccc(C2=CC3=C(Br)C(=O)C(C)(O)C(=O)C3=CO2)cc1 (stereo not drawn) [SJ000580186-1],1.031,0.3527,3.615,-0.5513,-2.02,-1.841,-0.7753,1.575
